# Source: PubChem BioAssay (NCI)
#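 48-hour exposure; five concentrations; linearly interpolated endpoints. GI50 is the concentration that inhibits growth by half. TGI marks complete inhibition of growth.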
# Legend:
# Assay in all cases: DTP human tumour cell line panel, 48 h
# SR leukemia = test system: SR leukemia
# SK-MEL-28 melanoma = test system: SK-MEL-28 melanoma
# OVCAR-4 ovarian = test system: OVCAR-4 ovarian
# NCI-H23 lung = test system: NCI-H23 lung
# KM12 colon = test system: KM12 colon
# K-562 leukemia = test system: K-562 leukemia
# 786-0 renal = test system: 786-0 renal
# RPMI-8226 leukemia = test system: RPMI-8226 leukemia
# NCI/ADR-RES ovarian = test system: NCI/ADR-RES ovarian
# MDA-MB-231 breast = test system: MDA-MB-231 breast
Compound,TGI (SR leukemia),TGI (SK-MEL-28 melanoma),TGI (OVCAR-4 ovarian),TGI (NCI-H23 lung),TGI (KM12 colon),TGI (K-562 leukemia),TGI (786-0 renal),TGI (RPMI-8226 leukemia),TGI (NCI/ADR-RES ovarian),TGI (MDA-MB-231 breast),GI50 (SR leukemia),GI50 (RPMI-8226 leukemia),GI50 (SK-MEL-28 melanoma),GI50 (NCI/ADR-RES ovarian),GI50 (OVCAR-4 ovarian),GI50 (NCI-H23 lung),GI50 (KM12 colon),GI50 (MDA-MB-231 breast),GI50 (786-0 renal),GI50 (K-562 leukemia)
O=C(/C=C/c1ccc(O)cc1)c1cc(Cl)ccc1O,54.6 µM,> 100 µM,> 100 µM,> 100 µM,> 100 µM,71.3 µM,> 100 µM,,,,,,,,,,,,,
Cc1ccc2nc3c(C)cc(=O)cc-3sc2c1,46.7 µM,73 µM,33.6 µM,52.8 µM,65.4 µM,31.5 µM,35.4 µM,,,,,,,,,,,,,
COC(=O)C1(O)c2ccccc2N=C2C1CCN2C (configuration not stated),> 100 µM,> 100 µM,> 100 µM,> 100 µM,> 100 µM,> 100 µM,> 100 µM,> 100 µM,,,,,,,,,,,,
COc1cccc(/C=C\c2ccnc3ccccc23)c1,,> 10 µM,> 10 µM,> 10 µM,> 10 µM,> 10 µM,> 10 µM,> 10 µM,> 10 µM,> 10 µM,,,,,,,,,,
FC(F)(F)c1ccc(NCc2nc3ccccc3[nH]2)cc1,> 100 µM,> 100 µM,> 100 µM,80.2 µM,87.7 µM,,> 100 µM,67.8 µM,67.2 µM,78.2 µM,28.3 µM,20.7 µM,27.9 µM,21.9 µM,27.1 µM,22.9 µM,29.7 µM,22.8 µM,30.7 µM,
CCCCCCCCCCCC(=O)OC(COC(N)=O)COc1ccc(Cl)cc1 (configuration not stated),,36.2 µM,40.9 µM,46 µM,61.1 µM,35.1 µM,> 100 µM,47 µM,,,,,,,,,,,,
O=C1CC[C@@H](NC(=O)Cc2ccccc2)C(=O)N1,> 100 µM,> 100 µM,> 100 µM,> 100 µM,> 100 µM,> 100 µM,> 100 µM,> 100 µM,,,,,,,,,,,,
COc1ccc2c(c1)C(=O)c1c-2c(N2CCN(C(=O)CCNCCNCCO)CC2)nc2ccccc12,,23.4 µM,42.2 µM,,53.1 µM,7.34 µM,25.6 µM,33.2 µM,36.1 µM,30.9 µM,,11.3 µM,9.22 µM,18 µM,21.2 µM,,16.3 µM,13.5 µM,11.4 µM,2.97 µM
COc1cc(/C=C/c2ccccn2)cc(OC)c1OC,,> 10 µM,> 10 µM,> 10 µM,> 10 µM,> 10 µM,> 10 µM,> 10 µM,> 10 µM,> 10 µM,,,,,,,,,,
NCC1(N2CCOCC2)C2CCCC21CNc1ccccc1 (configuration not stated),> 100 µM,> 100 µM,> 100 µM,> 100 µM,> 100 µM,> 100 µM,> 100 µM,,,,,,,,,,,,,
CCCCC(C(=O)CCC(=O)Nc1ccc(Cl)cc1)C(=O)C(C)C (configuration not stated),> 100 µM,> 100 µM,> 100 µM,> 100 µM,> 100 µM,> 100 µM,> 100 µM,> 100 µM,,,,,,,,,,,,
Cc1ccc(NC(=O)C(=O)CC(=O)c2ccccc2)cc1C,,> 100 µM,> 100 µM,> 100 µM,> 100 µM,,> 100 µM,> 100 µM,,,,,,,,,,,,
Cc1cc(N)cc(C)c1-c1c(Br)cc(N)cc1Br,,33.7 µM,> 100 µM,19 µM,17.3 µM,,18.7 µM,10.4 µM,5.57 µM,26.3 µM,,3.04 µM,5.21 µM,2.23 µM,5.93 µM,3.52 µM,3.75 µM,4.1 µM,5.53 µM,
Cn1cnc([N+](=O)[O-])c1Sc1nc2ccc([N+](=O)[O-])cc2[nH]1,41.5 µM,37.6 µM,> 100 µM,72 µM,> 100 µM,69.2 µM,> 100 µM,67.5 µM,,,,,,,,,,,,
NC(=O)c1ncn(Cc2ccccc2)c1CNC(N)=S,> 100 µM,> 100 µM,> 100 µM,> 100 µM,> 100 µM,> 100 µM,> 100 µM,> 100 µM,,,,,,,,,,,,
O=C(CSc1ncc(-c2ccccc2)n1-c1ccccc1)Nc1ccc(-c2nc3ccccc3s2)cc1,,,,> 100 µM,,> 100 µM,> 100 µM,> 100 µM,,> 100 µM,,> 100 µM,,,,20.4 µM,,21.4 µM,5.34 µM,> 100 µM
COc1cc(NC(C)CCCN2C(=O)c3ccccc3C2=O)c2ncccc2c1OC (configuration not stated),> 100 µM,> 100 µM,> 100 µM,> 100 µM,> 100 µM,> 100 µM,> 100 µM,,> 100 µM,> 100 µM,23.7 µM,,37.8 µM,24 µM,11.8 µM,26.3 µM,29.7 µM,31.8 µM,54.1 µM,83.9 µM
c1ccc2c(c1)N=C(c1ccc3ccccc3c1)CC(c1cccc3ccccc13)S2 (configuration not stated),,> 100 µM,> 100 µM,> 100 µM,> 100 µM,54 µM,> 100 µM,52.5 µM,,,,,,,,,,,,
CC1(C)CC(N2CCN(C3CC(C)(C)NC(C)(C)C3)CC2)CC(C)(C)N1,> 100 µM,> 100 µM,> 100 µM,> 100 µM,> 100 µM,> 100 µM,> 100 µM,> 100 µM,,,,,,,,,,,,
Cc1[nH]n(-c2cccc(Cl)c2)c(=O)c1/C=C1\C=c2ccccc2=CC1=O,,,> 100 µM,> 100 µM,> 100 µM,> 100 µM,86.6 µM,> 100 µM,> 100 µM,> 100 µM,,> 100 µM,,> 100 µM,> 100 µM,48 µM,> 100 µM,36.1 µM,21.5 µM,44.7 µM

Compound,TGI (SR leukemia),TGI (SK-MEL-28 melanoma),TGI (OVCAR-4 ovarian),TGI (NCI-H23 lung),TGI (KM12 colon),TGI (K-562 leukemia),TGI (786-0 renal),TGI (RPMI-8226 leukemia),TGI (NCI/ADR-RES ovarian),TGI (MDA-MB-231 breast),GI50 (SR leukemia),GI50 (RPMI-8226 leukemia),GI50 (SK-MEL-28 melanoma),GI50 (NCI/ADR-RES ovarian),GI50 (OVCAR-4 ovarian),GI50 (NCI-H23 lung),GI50 (KM12 colon),GI50 (MDA-MB-231 breast),GI50 (786-0 renal),GI50 (K-562 leukemia)
N#Cc1cn(-c2c3ccccc3nc3ccccc23)c(=O)[nH]c1=O,24.6 µM,31.4 µM,20.4 µM,,79.5 µM,23.3 µM,13.5 µM,75.8 µM,,,,,,,,,,,,
CC(=O)C(C=O)C(C)=O.CC(=O)CC(C)=O.CC(=O)CC(C)=O.[Ru],92.6 µM,> 100 µM,> 100 µM,44.3 µM,> 100 µM,> 100 µM,> 100 µM,,95 µM,68.8 µM,18.2 µM,,48.8 µM,21.8 µM,19.5 µM,12.1 µM,27.2 µM,15.7 µM,37.3 µM,20.7 µM
O=C(c1ccco1)c1c(C(F)(F)F)n([O-])c2ccc(F)cc2[n+]1=O,,2.79 µM,2.64 µM,2.49 µM,0.568 µM,0.219 µM,3.94 µM,0.573 µM,5.59 µM,3.44 µM,,0.18 µM,1.46 µM,2.19 µM,1.35 µM,1.02 µM,0.213 µM,1.61 µM,1.27 µM,0.065 µM
O=C(NC1C(=O)NNC1c1ccccc1Cl)c1ccccc1 (configuration not stated),> 100 µM,> 100 µM,> 100 µM,> 100 µM,> 100 µM,> 100 µM,> 100 µM,> 100 µM,,,,,,,,,,,,
Fc1ccc(-c2nn3c(COc4ccc(Cl)cc4Cl)nnc3s2)cc1Oc1ccccc1,,42.9 µM,> 100 µM,26.4 µM,91.2 µM,> 100 µM,26.9 µM,39.1 µM,,23.8 µM,,18.3 µM,15.8 µM,,24.6 µM,13.6 µM,28.9 µM,11.6 µM,14 µM,21.2 µM
N#CC1C(=O)NC(=O)C1=O (configuration not stated),,> 100 µM,> 100 µM,> 100 µM,> 100 µM,> 100 µM,> 100 µM,> 100 µM,,,,,,,,,,,,
NC(=O)c1cc([N+](=O)[O-])cc([N+](=O)[O-])c1,> 100 µM,> 100 µM,> 100 µM,> 100 µM,> 100 µM,> 100 µM,> 100 µM,> 100 µM,,,,,,,,,,,,
COC(=O)/C(=N/NC(C)(C)C)C(C(=O)OC)C(=O)C(=O)Nc1nc2ccc([N+](=O)[O-])cc2s1 (configuration not stated),> 100 µM,> 100 µM,> 100 µM,> 100 µM,> 100 µM,> 100 µM,> 100 µM,> 100 µM,,,,,,,,,,,,
COC(=O)C1(C)CCCC2(C)c3cc(OC)ccc3C(=O)C(Br)C12 (configuration not stated),> 10 µM,> 10 µM,,> 10 µM,> 10 µM,> 10 µM,4.21 µM,6.53 µM,> 10 µM,> 10 µM,,,,,,,,,,
O=C1c2ccccc2C(=O)c2c1ccc1c2N=C(c2ccc(Br)cc2)CC(c2cccc3ccccc23)N1 (configuration not stated),> 100 µM,> 100 µM,> 100 µM,> 100 µM,> 100 µM,> 100 µM,> 100 µM,> 100 µM,,,,,,,,,,,,
C[C@H](c1ccccc1)N(CCC(=O)O)C(=O)CCN(C(=O)CCN(C(=O)CCN[C@H](C)c1ccccc1)[C@H](C)c1ccccc1)[C@H](C)c1ccccc1,,> 100 µM,> 100 µM,> 100 µM,> 100 µM,> 100 µM,> 100 µM,> 100 µM,> 100 µM,> 100 µM,,58.4 µM,> 100 µM,> 100 µM,> 100 µM,> 100 µM,> 100 µM,> 100 µM,> 100 µM,> 100 µM
CC1CC(c2ccc(Cl)c(Cl)c2)=Nc2ccccc2S1 (configuration not stated),> 100 µM,> 100 µM,> 100 µM,> 100 µM,> 100 µM,> 100 µM,> 100 µM,> 100 µM,,,,,,,,,,,,
COc1cc(Cn2c(SCC(=O)Nc3ccc(Cl)cc3)nc3ccccc3c2=O)cc(OC)c1OC,> 100 µM,50.9 µM,13.9 µM,72.6 µM,> 100 µM,,12.3 µM,> 100 µM,27.6 µM,13 µM,18.5 µM,22.9 µM,11.4 µM,8.38 µM,3.01 µM,16.5 µM,32.3 µM,3.08 µM,3.37 µM,
Cc1ccc(S(=O)(=O)CC2(Br)CCc3ccccc3C2=O)cc1 (configuration not stated),,38.5 µM,50 µM,> 100 µM,> 100 µM,> 100 µM,> 100 µM,> 100 µM,> 100 µM,84.9 µM,,,,,,,,,,
CC1(C)OC(=O)C(=Cc2ccc([N+](=O)[O-])s2)C(=O)O1,6.31 µM,34.6 µM,,39.1 µM,29 µM,,32.2 µM,37.1 µM,39.8 µM,36.4 µM,,,,,,,,,,
COC(=O)C1=C(\O)C[C@@]2(C)CC[C@@H](C(=O)OC)C2C/C=C\1C(=O)OC (some centres not stated),> 100 µM,> 100 µM,> 100 µM,,> 100 µM,,> 100 µM,> 100 µM,,,,,,,,,,,,
O=C(O)c1cn(C2CC2)c2cc(N3CCN(Cc4ccc5ccccc5c4O)CC3)c(F)cc2c1=O,,> 100 µM,,> 100 µM,,,5.42 µM,,,> 100 µM,,,3.71 µM,,,3.51 µM,,3.41 µM,2.34 µM,
O=C(Nc1ccccc1)Nc1ccc(Cl)c(Cl)c1,,> 100 µM,71.5 µM,> 100 µM,20.5 µM,> 100 µM,> 100 µM,9.83 µM,83.8 µM,25.4 µM,,2.83 µM,4.55 µM,3.05 µM,3.34 µM,2.58 µM,2.64 µM,3.9 µM,3.7 µM,3.79 µM
Nc1nc2ncn(CC(O)COC(=O)c3ccccc3)c2c(=O)[nH]1 (configuration not stated),> 100 µM,> 100 µM,> 100 µM,> 100 µM,> 100 µM,> 100 µM,> 100 µM,> 100 µM,,,,,,,,,,,,
CN1CCc2cc3c4cc2C1Cc1ccc(cc1)Oc1cc(ccc1O)CC1c2c(cc(O)c(c2O4)O3)CCN1C (configuration not stated),> 100 µM,3.33 µM,4.37 µM,13.5 µM,4.43 µM,4.54 µM,10.9 µM,4.02 µM,,,,,,,,,,,,
